Each block holds one compound with its values, some of them ahead of it.
Legend:
[1] = Stability in aqueous solutions; type: physicochemical; details: compared to plasma
[2] = type: in vitro ADME
Procedure: (§1) To a healthy volunteer (82 kg), who fasted overnight, 1 gram of R-lipoic acid (4 capsules of 250 mg) was administered orally. At several time points (0-5 hr), blood samples of 3 ml were taken from a venous cannula into Li-heparine containing tubes. The samples were centrifuged (2000 g at 4° C. for 5 min) and the plasma was analyzed immediately. The proteins in the plasma were precipitated by adding 1 ml ethanol and […] 85% (g/g) H3 PO4 to […] plasma. Thereafter, the sample was thoroughly mixed on a vortex mixer and placed on ice. After 15 min it was centrifuged at 2000 g for 10 min at 4° C. […] of the supernatant were brought onto the column. Quality control samples were prepared by spiking plasma with a small volume (less than 1%) of an ethanol solution of the compound.
The stability of lipoic acid in plasma was evaluated by spiking plasma at 0.5 mg/ml and storing it at -25° C. […]
The stability of dihydrolipoic acid in plasma was also evaluated by spiking plasma at 0.5 mg/ml and storing it at -25° C. After approximately 20 hours, ca. 6% of the theoretical value was detected. […] Lipoic acid was also detected in the quality control samples of dihydrolipoic acid used for determination of the accuracy and precision. […] This means that the sample is immediately analyzed after blood sampling, and the pH is reduced to increase the stability of thiols. […]

[3] = test system: human erythrocytes; details: cited from earlier work
[4] = Plasma pharmacokinetics and metabolism of lipoic acid after oral administration of 1 gram R-lipoic acid to a healthy volunteer (HPLC/ECD); type: in vivo, human
Procedure: The HPLC system consisted of a pump (thermo separation products, Spectra SERLES P100,Breda, the Netherlands), an auto-injector (Gilson, Meyvis, model 232 XL, Bergen op Zoom, the Netherlands) with a […] sample loop and a dilutor (Gilson, Meyvis, model 401 C, Bergen op Zoom, the Netherlands). The system was equipped with an electrochemical detector (Coulochem ESA, model 5100 A, Interscience, Breda, the Netherlands) and an analytical cell (ESA, model 5010). Interscience, Breda, the Netherlands) which consisted of two cell compartments.
The separations were performed using a Hypersil C 18 column (125 mm×4.6 mm i.d., […] particle size) and a mobile phase of phosphate buffer (50 mM KH2 PO4 /H3 PO4, pH 2.7) and acetonitrile (65:35, v/v). Before use, the eluent was vacuum filtrated over a […] filter. The flow rate was 0.7 ml/min.
Sample Collection and Preparation
as §1
For the elucidation of the structure of the metabolites, the plasma obtained at 69, 92 and 119 min was pooled (approximate total volume was 3 ml). The pooled plasma was acidified with 3 ml 3 M sulfuric acid. Thereafter, the sample was extracted twice with 12 ml HPLC-grade ethylacetate (Baker Phillipsburg, N.J.). After evaporation of the ethylacetate the compounds were methylated with diazomethane for 30 min at room temperature. Subsequently, the compounds were dissolved in […] ethanol. A volume of […] was injected on a GC/MS system using a split injection ratio of 1/15. The instrument used was a HP 5890 GC equipped with a HP 5970 mass selective detector. Gas chromatography was performed on a CPSil 5 CB WCOT capillary column (25 m, […] i.d., […]; Chrompack, Middelburg, the Netherlands). While the temperature of the injector and transfer line were kept at 250° C., two oven temperature programs were required to obtain satisfactory separation of all lipoic acid related components from endogenous plasma components. The oven temperature was programmed from 60° C. (kept for 2 min) to 180° C. (at 20° C./min) with an isothermal period (10 min) and subsequent temperature increase to 288° C. (at 20° C./min) and another isothermal period; this produced satisfactory results for all components except bisnorlipoic acid. Bisnorlipoic acid could be separated from background components by using a program from 60° C. (kept for 2 min) to 160° C. (at 20° C./min with an isothermal period (15 min) and subsequent raise to 288° C. (at 20° C./min). Detection was performed by using 70 eV impact ionization.
The Pharmocokinetic Analysis
A volunteer was given 1 gram R-lipoic acid. […] Somewhat later, an unknown metabolite was observed which eluted at 5.5 min (peak nr. 6 in FIG. 2). Thereafter, a second unknown appeared which eluted at 4.7 min (peak nr. 5 in FIG. 2). Subsequently, ca. 45 after administration, bisnorlipoic acid could be detected (peak nr. 4 in FIG. 2). […] The time course of the plasma concentrations of lipoic acid, the two unknown metabolites and bisnorlipoic acid are shown in FIG. 3. Around 45 min a maximum in the lipoic acid concentration is reached. At 75 min a diet containing a high amount of fat was consumed. […]

[5] = test system: human cells in culture; details: cited from earlier work

stability in aqueous solutions [1]: more stable
Compound: O=C(O)CCCC[C@@H](S)CCS (racemic) [dihydrolipoic acid]

Compound: O=C(O)CCCC[C@@H]1CCSS1 (racemic) [lipoic acid, 1,2-dithiolane-3-pentanoic acid]
stability in plasma [2]: stable in plasma for at least one week
reduction of lipoic acid into dihydrolipoic acid [3]: reduction of lipoic acid was shown
free plasma concentration before administration ([4]; human, in vivo): < 7.8 ng/mL
Cmax ([4]; human, in vivo, po): 1150 ng/mL
half life ([4]; human, in vivo, po): 0.933 h
time of first appearance in plasma ([4]; human, in vivo, po): 30 min
half-life ([4]; human, in vivo, po, half life): ~1 h
Tmax ([4]; human, in vivo, po, time of (first) maximum in plasma concentration): ~0.75 h
Tmax ([4]; human, in vivo, po, time of maximum plasma concentration): 1.53 h
elimination kinetics ([4]; oral 1 gram R-lipoic acid): first order kinetics
presence in plasma after three hours ([4]; oral 1 gram R-lipoic acid): essentially absent from the plasma
time of first appearance in plasma ([4]; oral 1 gram R-lipoic acid): Thirty minutes
reduction of lipoic acid into dihydrolipoic acid [5]: reduction of lipoic acid was shown

Compound: O=C(O)CC(O)CCC1CCSS1 (centres unmarked) [3-hydroxylipoic acid]
order of reaching maximal plasma level ([4]; human, in vivo, po): reaches its maximal level before the compound from peak 6 reaches maximum

time of maximum plasma concentration ([4]; human, in vivo, po): 119 min
Compound: O=C(O)CC(=O)CCC1CCSS1 (centres unmarked) [3-ketolipoic acid]
order of reaching maximal plasma level ([4]; human, in vivo, po): reaches its maximum plasma level just before bisnorlipoic acid reaches its maximum

time of first detection in plasma ([4]; human, in vivo, po): ca. 45
time of maximum plasma concentration ([4]; human, in vivo, po): 189 min
Compound: O=C(O)CCC1CCSS1 (centres unmarked) [bisnorlipoic acid]

Compound: O=C(O)C1CCSS1 (centres unmarked) [tetranorlipoic acid]
detection in plasma after administration ([4]; human, in vivo, po): Neither dihydrolipoic acid nor tetranorlipoic acid were found
